Test [1] has as its target T1, ROCK2 (Homo sapiens, UniProt O75116).
T1 construct: purchased Reaction Biology
The test can be described thus: ROCK2 kinase assay (Reaction Biology Hot Spot kinase assay). The note with it: purified kinase, 33P-ATP (10 μM), P81 filter-binding method. The format is biochemical. On the procedure: (§1) ROCK2 and ROCK] kinase assays
(§2) ROCK2 and ROCK1 enzyme potencies were determined by Reaction Biology (www.reactionbiology.com) using their Hot Spot kinase Assay. The base reaction buffer for the assay was 20 mM Hepes (pH 7.5), 10 mM MgCl2, 1 mM EGTA, 0.01% Brij35, 0.02 mg/mL BSA, 0.1 mM Na3VO4, and 2 mM DTT with a 1% DMSO concentration. Required cofactors were added individually to each kinase reaction. The substrate was freshly prepared in the reaction buffer described above, and then cofactors were delivered. The purified kinase was added to the substrate solution and then gently mixed. Compounds were added from 100% DMSO into the kinase reaction mixture by Acoustic technology (Echo550; nanoliter range) and then incubated for 20 min at room temperature. ^33P-ATP (10 μM) was delivered to initiate the reaction, and then the mixture was incubated again for two hours at room temperature. […] Nat. Biotechnol. 2011 Oct. 30; 29(11):1039-45. doi: 10.1038/nbt.2017.
(§3) The compounds were categorized based on IC50 value as “+”, “++”, “+++”, and “++++”. The category “+” refers to compounds with ROCK IC50 value of >10 μM. The category “++” refers to compounds with a ROCK IC50 value of 10 to 3 μM. The category “+++” refers to compounds with ROCK IC50 value of 3 to 0.3 μM. The category “++++” refers to compounds with a ROCK IC50 value of <0.3 μM. “ND” refers to “not determined.” The compound of an “Example Number” is the final product of an Example entitled the Example Number.

Test [2] deals with T2, ROCK1 (Homo sapiens, UniProt Q13464).
T2 construct: purchased Reaction Biology
The test can be described thus: ROCK1 kinase assay (Reaction Biology Hot Spot kinase assay). The class given is biochemical. The note with it: purified kinase, 33P-ATP (10 μM), P81 filter-binding method. How it is done:
as §1, §2, §3

The record followed here is patent US20240368132A1, “ROCK2 INHIBITORS AND USES THEREOF” (President and Fellows of Harvard College, priority 2021, published 2024).

By IC50 is commonly meant the concentration needed to halve the response being measured. A lower IC50 goes with inhibition by little substance.

T2 sequence (Q13464 whole entry): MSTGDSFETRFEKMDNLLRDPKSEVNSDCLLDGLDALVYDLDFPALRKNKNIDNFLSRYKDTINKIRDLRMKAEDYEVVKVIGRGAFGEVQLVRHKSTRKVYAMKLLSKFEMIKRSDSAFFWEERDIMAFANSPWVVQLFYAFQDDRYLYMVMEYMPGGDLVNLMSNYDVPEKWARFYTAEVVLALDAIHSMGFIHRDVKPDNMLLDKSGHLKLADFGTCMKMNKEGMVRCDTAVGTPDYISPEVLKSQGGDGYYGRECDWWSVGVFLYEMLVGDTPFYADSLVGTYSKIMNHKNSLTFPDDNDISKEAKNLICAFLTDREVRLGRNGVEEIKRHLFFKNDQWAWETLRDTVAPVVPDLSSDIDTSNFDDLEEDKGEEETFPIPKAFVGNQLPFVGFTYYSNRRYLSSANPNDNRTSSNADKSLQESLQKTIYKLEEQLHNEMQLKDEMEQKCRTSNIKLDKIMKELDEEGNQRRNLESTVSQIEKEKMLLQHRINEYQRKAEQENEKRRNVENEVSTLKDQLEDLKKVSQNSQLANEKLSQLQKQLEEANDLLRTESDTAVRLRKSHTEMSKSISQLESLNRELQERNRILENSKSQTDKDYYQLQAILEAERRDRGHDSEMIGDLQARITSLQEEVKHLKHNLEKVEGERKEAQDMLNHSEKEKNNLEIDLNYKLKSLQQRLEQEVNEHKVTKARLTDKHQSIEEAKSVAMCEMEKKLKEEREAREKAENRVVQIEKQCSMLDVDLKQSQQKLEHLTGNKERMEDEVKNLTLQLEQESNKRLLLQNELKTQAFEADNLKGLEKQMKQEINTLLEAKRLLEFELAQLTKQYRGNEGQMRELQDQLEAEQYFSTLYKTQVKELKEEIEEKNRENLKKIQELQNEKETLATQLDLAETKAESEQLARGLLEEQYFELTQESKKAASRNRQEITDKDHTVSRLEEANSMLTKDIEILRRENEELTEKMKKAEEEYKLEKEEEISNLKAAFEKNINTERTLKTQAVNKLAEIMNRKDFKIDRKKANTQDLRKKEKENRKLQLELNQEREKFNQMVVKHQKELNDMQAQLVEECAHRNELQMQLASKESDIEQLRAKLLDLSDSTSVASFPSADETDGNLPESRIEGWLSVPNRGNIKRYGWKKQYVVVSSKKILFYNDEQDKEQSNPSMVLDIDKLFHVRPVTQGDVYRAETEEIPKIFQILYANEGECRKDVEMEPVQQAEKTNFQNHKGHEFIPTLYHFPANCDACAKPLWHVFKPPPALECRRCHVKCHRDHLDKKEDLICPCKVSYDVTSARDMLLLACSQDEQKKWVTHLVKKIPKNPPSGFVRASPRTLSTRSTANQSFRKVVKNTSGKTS
T1 sequence (O75116 whole entry): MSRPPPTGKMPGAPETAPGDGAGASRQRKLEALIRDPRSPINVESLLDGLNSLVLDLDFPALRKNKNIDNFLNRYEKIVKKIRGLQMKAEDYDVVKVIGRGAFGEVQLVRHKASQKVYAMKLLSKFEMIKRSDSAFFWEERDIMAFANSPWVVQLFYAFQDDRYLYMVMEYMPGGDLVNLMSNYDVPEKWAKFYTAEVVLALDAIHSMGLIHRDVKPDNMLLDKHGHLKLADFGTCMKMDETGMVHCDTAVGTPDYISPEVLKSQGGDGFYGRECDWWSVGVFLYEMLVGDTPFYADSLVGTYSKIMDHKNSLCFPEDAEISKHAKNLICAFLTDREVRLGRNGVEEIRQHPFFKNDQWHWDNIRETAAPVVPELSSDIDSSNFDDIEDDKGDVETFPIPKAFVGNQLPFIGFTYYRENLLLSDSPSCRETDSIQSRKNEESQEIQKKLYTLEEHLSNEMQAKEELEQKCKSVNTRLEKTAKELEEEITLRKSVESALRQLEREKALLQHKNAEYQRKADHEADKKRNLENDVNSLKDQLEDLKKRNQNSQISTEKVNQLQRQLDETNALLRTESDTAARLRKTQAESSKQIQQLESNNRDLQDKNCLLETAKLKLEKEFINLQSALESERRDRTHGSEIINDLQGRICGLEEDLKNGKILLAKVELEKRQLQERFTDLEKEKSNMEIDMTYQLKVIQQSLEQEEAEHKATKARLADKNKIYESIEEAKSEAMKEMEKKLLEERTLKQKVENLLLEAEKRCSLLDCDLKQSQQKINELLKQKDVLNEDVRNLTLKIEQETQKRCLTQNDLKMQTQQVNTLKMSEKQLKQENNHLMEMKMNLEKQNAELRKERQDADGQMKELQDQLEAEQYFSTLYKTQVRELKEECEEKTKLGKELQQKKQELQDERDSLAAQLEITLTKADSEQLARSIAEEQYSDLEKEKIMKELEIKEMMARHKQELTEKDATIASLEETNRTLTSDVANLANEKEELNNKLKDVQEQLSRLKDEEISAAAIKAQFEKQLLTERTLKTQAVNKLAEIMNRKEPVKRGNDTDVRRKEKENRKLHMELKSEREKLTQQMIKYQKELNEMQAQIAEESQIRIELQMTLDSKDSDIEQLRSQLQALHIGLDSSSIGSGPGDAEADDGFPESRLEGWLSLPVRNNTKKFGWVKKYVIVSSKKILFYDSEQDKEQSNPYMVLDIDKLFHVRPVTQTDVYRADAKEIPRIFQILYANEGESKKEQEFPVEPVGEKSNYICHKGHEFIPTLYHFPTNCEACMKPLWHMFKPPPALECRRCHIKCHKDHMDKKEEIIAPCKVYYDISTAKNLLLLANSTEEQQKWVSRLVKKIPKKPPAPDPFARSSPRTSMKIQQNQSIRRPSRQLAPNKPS

As to `COc1cc(-n2cc(C)c(Nc3ccc4[nH]ncc4c3Cl)n2)ccc1C(=O)NC(C)C` [Example 85, 4-(3-((4-chloro-1H-indazol-5-yl)amino)-4-methyl-1H-pyrazol-1-yl)-N-isopropyl-2-methoxybenzamide], the IC50 in test [1] and in test [2] was less than 300 nM each time.
For the compound `COc1cc(-n2cc(C)c(Nc3ccc4[nH]ncc4c3Cl)n2)ccc1C(=O)NC1CCN(C)C1` (stereo not shown) [Example 86], the IC50 in test [1] and in test [2] was less than 300 nM each time.
With `COc1cc(-n2cc(C)c(Nc3ccc4[nH]ncc4c3Cl)n2)ccc1C(=O)NC1CCCC1` [Example 87], the half-maximal inhibitory concentration (IC50) in test [1] is less than 300 nM; in test [2], 300 to 3000 nM.
On the same counts, the results for `COc1cc(-n2cc(C)c(Nc3ccc4[nH]ncc4c3Cl)n2)ccc1C(=O)NCC(F)(F)F` [Example 88] are less than 300 nM and greater than 10000 nM.
Consider `COc1cc(-n2cc(C)c(Nc3ccc4[nH]ncc4c3Cl)n2)ccc1C(=O)N1CCCC1` [Example 89], for which the values for the IC50 in test [1] and in test [2] were 300 to 3000 nM and greater than 10000 nM, respectively.
